Where two headings read alike, the source gives them in different places.
How the values were obtained:
[1] = test system: PGE2 production by cell lines; experiment: PGE2 production by cell lines; format: cell-based
[2] = chemical stability in aqueous solutions; format: physicochemical; conditions: over broad pH range
[3] = stability on incubation with hepatocyte extracts; format: in vitro ADME
[4] = stability on incubation with hepatocyte cell lines; format: in vitro ADME
[5] = toxicity after IP injection into mice
[6] = target: T1, recombinant 15-PGDH (Homo sapiens, UniProt P15428); experiment: inhibition of recombinant 15-PGDH; format: biochemical
T1 sequence (P15428 1-266): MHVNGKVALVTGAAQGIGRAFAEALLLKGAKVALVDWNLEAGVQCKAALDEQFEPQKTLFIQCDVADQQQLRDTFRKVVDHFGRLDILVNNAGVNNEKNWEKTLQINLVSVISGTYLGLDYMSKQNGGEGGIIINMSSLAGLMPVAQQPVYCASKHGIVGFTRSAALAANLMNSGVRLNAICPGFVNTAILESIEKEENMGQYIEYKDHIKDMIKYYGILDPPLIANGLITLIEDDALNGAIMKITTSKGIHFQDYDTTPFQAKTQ

[7] = stability on incubation with mouse liver extracts; format: in vitro ADME
[8] = stability on incubation with rat liver extracts; format: in vitro ADME
[9] = stability on incubation with human liver extracts; format: in vitro ADME
[10] = pharmacokinetics in plasma and brain after intraperitoneal injection; format: in vivo; conditions: mouse, 25 mg/kg intraperitoneal, female C57BL/7 mice, read-out: total drug exposure (area under the curve) in brain relative to plasma
[11] = cited from earlier work
[12] = target: T2, EP2 receptors (Homo sapiens, UniProt P43116); conditions: in vitro; cited from earlier work
T2 construct: host or cells: neurons in vitro

[13] = test system: prostaglandin E2 (PGE2) in brain; experiment: PGE2 in 3 regions of the mouse brain after intraperitoneal injection; format: in vivo; conditions: 2.5 mg/kg IP, 3 hours after injection; cerebrum, cerebellum, medulla/pons; 3 mice
From the text: Brain regions sampled are #1, the cerebrum, #2, the cerebellum, and #3, medulla/pons. Basal PGE2 is highest in the cerebrum and medulla/pons, and lowest in the cerebellum.

[14] = test system: mice subjected to blast injury (traumatic brain injury); experiment: learning, memory and beam walking after traumatic brain injury (blast injury); format: in vivo; conditions: blast-injured mice
Protocol: In this study, mice were on day 0 subjected to traumatic brain injury from exposure to an adjacent blast injury in an overpressure chamber. 24 hours later, on study day 1, mice treatment with (+) SW033291 at 10 mg/kg was initiated by daily intraperitoneal injection. A parallel cohort of control mice were initiated on injection with vehicle only. On study day 7, mice commenced 4 days of daily training to learn the location of a cup on a table with 20 holes equally spaced around the perimeter, in the standard Barnes maze task. […] Cohorts that are compared are sham-injured mice, mice subjected to blast injury and treated with vehicle, mice subjected to blast injury and treated with the neuroprotective agent P7C3-A20, and mice subjected to blast injury and treated with (+) SW033291. Quicker time in finding the cup on day 4 is reflective of learning.
On study day 11, mice were returned to the Barnes maze with the escape cup removed, and memory was assessed by measuring the time mice spent within 5 cm of the cup's prior location.
On study day 12-14, mice were further trained to traverse a ½ inch cylindrical rod to reach and enter a black box. On day 14, the mice performance was videotaped and counts were made of the number of times a mouse foot slipped from the beam. […] In this assay, the worst performance is recorded for mice exposed to blast-injury receiving vehicle injections.

[15] = target: T3, 15-PGDH (Mus musculus, UniProt Q8VCC1); experiment: 15-PGDH activity in mouse brain regions after IP injection; format: in vivo; conditions: 2.5 mpk IP
T3 construct: from tissue; host or cells: mouse brain (cortex, cerebellum, pons and medulla)
T3 sequence (Q8VCC1 1-269): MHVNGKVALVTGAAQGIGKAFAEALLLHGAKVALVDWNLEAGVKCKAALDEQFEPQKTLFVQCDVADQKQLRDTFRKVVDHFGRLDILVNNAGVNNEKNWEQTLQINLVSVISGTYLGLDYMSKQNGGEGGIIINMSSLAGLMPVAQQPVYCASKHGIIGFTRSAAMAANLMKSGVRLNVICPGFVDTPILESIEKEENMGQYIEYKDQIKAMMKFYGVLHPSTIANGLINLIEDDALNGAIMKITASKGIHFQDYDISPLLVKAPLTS
Protocol: FIGS. 6(A-C) illustrate graphs showing 15-PGDH activity in the cortex (A), cerebellum (B), and pons and medulla (C) of mouse brain following IP injection of 15-PGDH inhibitor (+) SW033291 at 2.5 mpk. 15-PGDH activity was measured from the 3 regions of mouse brain using a 15-tritiated PGE2 substrate. A coupled enzymatic assay uses 15-PGDH and glutamate dehydrogenase to transfer tritium from PGE2 onto glutamate. Brain tissues were harvested for assay at the times shown following IP injection of 15-PGDH inhibitor (+)-SW033291 at 2.5 mpk.

[16] = test system: PGE2 levels in rat brain cortex; experiment: PGE2 levels in rat brain cortex after IP injection; format: in vivo
Protocol: FIG. 7 illustrates a graph showing PGE2 levels in rat brain cortex following IP injection of (+) SW033291 at 2.5, 5.0, and 10.0 mg/kg. PGE2 levels are elevated in rat brain cortex 30, 120, and 180 minutes following a single IP injection of (+)-SW033291 at the noted doses.

T2 sequence (P43116 whole entry): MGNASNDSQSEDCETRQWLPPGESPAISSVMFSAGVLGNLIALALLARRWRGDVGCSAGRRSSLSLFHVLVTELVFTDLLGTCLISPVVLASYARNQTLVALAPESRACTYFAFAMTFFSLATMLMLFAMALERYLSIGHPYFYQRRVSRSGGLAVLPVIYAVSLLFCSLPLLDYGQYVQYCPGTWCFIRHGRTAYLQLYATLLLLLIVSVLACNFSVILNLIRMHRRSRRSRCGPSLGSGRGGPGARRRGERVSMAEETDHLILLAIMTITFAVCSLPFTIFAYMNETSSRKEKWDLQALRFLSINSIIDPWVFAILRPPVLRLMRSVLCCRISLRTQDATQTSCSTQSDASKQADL

CCCC[S+]([O-])c1sc2nc(-c3cccs3)cc(-c3ccccc3)c2c1N (centres unmarked) [formula (IX)]
PGE2 production by cell lines [1]: increase PGE2 production | chemical stability in aqueous solutions [2]: chemically stable | chemical stability when incubated with hepatocyte extracts [3]: chemically stable | chemical stability when incubated with hepatocyte cell lines [4]: chemically stable | toxicity on repeated dosing ([5]; IP into mice at 0.3 μmole/per mouse twice daily for 21 days): no toxicity | immediate toxicity over 24 hours ([5]; IP into mice at 0.6 μmole/per mouse): no immediate toxicity | immediate toxicity over 24 hours ([5]; IP into mice at 1.2 μmole/per mouse): no immediate toxicity

CCCC[S+]([O-])c1sc2nc(-c3nccs3)cc(-c3cnc(C)n3C)c2c1N (centres unmarked) [formula (X)]
concentration at which recombinant 15-PGDH is inhibited [6]: 3 nM | concentration at which PGE2 production by cell lines is increased [1]: 20 nM | chemical stability in aqueous solutions [2]: chemically stable | chemical stability when incubated with mouse liver extracts [7]: chemically stable | chemical stability when incubated with rat liver extracts [8]: chemically stable | chemical stability when incubated with human liver extracts [9]: chemically stable | immediate toxicity over 24 hours ([5]; IP into mice at 50 mg/kg body weight): no immediate toxicity

CCCC[S+]([O-])c1sc2nc(-c3nccs3)cc(-c3cnc(C)n3C)c2c1N (single isomer, unassigned; (+)) [(+) SW209415]
Kp [10]: 1.56

CCCCC[C@H](O)/C=C/[C@H]1[C@H](O)CC(=O)[C@@H]1C/C=C\CCCC(=O)O [PGE2, prostaglandin E2]
half-life ([11]; following intravenous injection): less than 1 min | half-life ([11]; in the circulatory system): approximately 30 sec

CCCC1([C@H](O)C/C=C/[C@H]2[C@H](O)CC(=O)[C@@H]2CCCCCCC(=O)OC)CCC1 [butaprost]
protection of neurons from amyloid β-peptide neurotoxicity [12]: protected neurons

CCCC[S+]([O-])c1sc2nc(-c3cccs3)cc(-c3ccccc3)c2c1N (single isomer, unassigned; (+)) [(+) SW033291]
brain PGE2 levels versus vehicle [13]: roughly double | Barnes maze learning (time to locate the cup, training days 1-4) ([14]; daily IP treatment from 24 hours after injury, study days 7-10): appear similar to control mice that received only sham injury | Barnes maze memory (time within 5 cm of the cup's prior location) ([14]; study day 11): behaved similarly to control mice that received only sham injury | foot slips from the beam ([14]; study day 14): intermediate performance | 15-PGDH enzyme activity in brain (cortex, cerebellum, pons and medulla) [15]: readily inhibited | PGE2 levels in rat brain cortex ([16]; 30, 120 and 180 minutes after single IP injection at 2.5, 5.0, 10.0 mg/kg): elevated | PGE2 levels in rat brain cortex ([16]; 120 minutes after dosing at 10 mpk IP): double | PGE2 levels in rat brain cortex ([16]; 180 minutes after dosing at 5 mpk IP): double
